Measurements: patent US20030096831A1, “Ocular growth and nicotinic antagonists” (priority 2000, published 2003)
Several values for one entry are separate records, joined by “and”; a condition that tells them apart may be missing. Equal values may be shown once. Entries after “also recorded” stand apart in the source; their conditions may differ. Where a name gives a salt, the structure may show the parent alone.

Experiments:
[1] = system: goggled eyes (form-deprivation myopia); test: Form-deprivation myopia in unilaterally goggled chicks, intravitreal drug for one week; details: for axial length measured by digital calipers, goggled eyes, drug effect / axial length measured by ultrasound, goggled eyes, drug effect / equatorial diameter measured by calipers (equatorial expansion of vitreous cavity), goggled eyes, drug effect / vitreous cavity length measured by ultrasound, goggled eyes, drug effect / refraction of goggled eyes (myopic refractive error), drug effect: difference goggled vs contralateral open eye, ANOVA over all doses
[2] = system: chick eye (intraocular muscles, refraction, ocular dimensions); test: Acute drug effects after a single intravitreal injection (pupil, refractometry, ultrasonography); type: in vivo, chicks
Protocol: Acute drug effects. To assess acute drug effects, other two-week old chicks (n=5/group) received a single unilateral intravitreal injection of one of the nicotinic antagonists at doses chosen based on drug effects on the growth of goggled eyes: 200 μg chlorisondamine, 50 μg and 1 μg mecamylamine, 5 μg methyllycaconitine or […] dihydro-β-erythroidine. Just before and at two hours and 24 hours after injection, both eyes were examined by refractometry and ultrasonography by the above methods.

non-goggled eyes = test: Eye growth and refraction of non-goggled (open) eyes, intravitreal drug for one week; details: daily intravitreal injections, one week, doses of 50, 10 or 1 μg
[3] = system: retina, retinal pigment epithelium, choroid; test: Histopathological effects on goggled and never-goggled eyes; type: in vivo, chicks; details: 200 or 50 μg daily, one week; goggled and non-goggled eyes
Protocol: Histopathological effects. To identify potential histopathologic effects in other groups of monocularly deprived or never-goggled one-week old chicks, chlorisondamine (200 or 100 μg every other day; n=5-6/group), mecamylamine (200 or 50 μg daily; n=5-8/group) or saline vehicle (n=3-9/group) was administered by intravitreal injection to the goggled eyes or to one of the open eyes of never-goggled chicks with vehicle to the contralateral eye, using the identical protocol as above. After one week of treatment, the above protocols provided refraction, ultrasound and caliper measurements. The eyes were then immersion fixed in 3% glutaraldehyde/0.5% paraformaldehyde in 0.1M phosphate buffer, pH 7.4. The posterior segments were either embedded in paraffin, cut at 5 μm thickness and stained with hematoxylin and eosin, or embedded in historesin, cut at 3 μm or 5 μm thickness and stained with 0.5% azure II/0.5% methylene blue in 1% borate.

[4] = intravitreal, one week, hydrobromide
[5] = intravitreal, one week, listed as Dihydro-β-erythroidine, hydrobromide
[6] = goggled chicks, P<0.05, dose groups that differ
[7] = two hours after single intravitreal injection of 50 μg

Br.COC1CC=C2CCN3CCC4=C(CC(=O)OC4)C23C1 (stereo not drawn) [dihydro-β-erythroidine, dihydro-β-crythroidine hydrobromide]
axial length measured by digital calipers, goggled eyes, drug effect ([1]; intravitreal, one week): significant reduction | axial length measured by ultrasound, goggled eyes, drug effect ([1]; intravitreal, one week): none of the differences in refraction, ultrasound measurements or caliper measurements of the equatorial diameter reached statistical significance | equatorial diameter measured by calipers (equatorial expansion of vitreous cavity), goggled eyes, drug effect ([1]; intravitreal, one week): none of the differences in refraction, ultrasound measurements or caliper measurements of the equatorial diameter reached statistical significance | vitreous cavity length measured by ultrasound, goggled eyes, drug effect ([1]; intravitreal, one week): none of the differences in refraction, ultrasound measurements or caliper measurements of the equatorial diameter reached statistical significance | refraction of goggled eyes (myopic refractive error), drug effect [1, 4]: had no effect on the refraction of visually deprived eyes | refraction of goggled eyes (myopic refractive error), drug effect [1, 5]: none of the differences in refraction, ultrasound measurements or caliper measurements of the equatorial diameter reached statistical significance | Caliper measurements axial length: statistically significant post hoc pairwise comparisons (Tukey test) [1, 6]: no individual drug dose was identified | overall effect on excessive ocular growth / experimental myopia of goggled eyes [1, 4]: weaker as only the axial measurements by calipers showed a statistically significant drug effect | overall effect on excessive ocular growth / experimental myopia of goggled eyes [1, 5]: only a weak effect against experimental myopia | pupil diameter, change from baseline [2, 7]: 1.0±0.1 mm

CNC1(C)C2CCC(C2)C1(C)C (centres unmarked) [mecamylamine]
induced myopia (refraction) of goggled eyes at the 50 μg dose ([1]; 50 μg daily intravitreal, one week): virtually eliminated the induced myopia | axial length measured by digital calipers, goggled eyes, drug effect ([1]; intravitreal, one week): no statistical effect | axial length measured by ultrasound, goggled eyes, drug effect ([1]; intravitreal, one week): only a trend towards a drug effect | equatorial diameter measured by calipers (equatorial expansion of vitreous cavity), goggled eyes, drug effect ([1]; intravitreal, one week): influenced | refraction of goggled eyes (myopic refractive error), drug effect ([1]; intravitreal, one week): altered refraction of goggled eyes; also recorded: influenced the myopic refraction occurring beneath a goggle | vitreous cavity length measured by ultrasound, goggled eyes, drug effect ([1]; intravitreal, one week): influenced the ultrasound measurements of vitreous cavity length | Caliper measurements equatorial diameter: statistically significant post hoc pairwise comparisons (Tukey test) [1, 6]: did not identify any individual doses that differed from the controls | Ultrasound measurements vitreous cavity depth: statistically significant post hoc pairwise comparisons (Tukey test) [1, 6]: 50 μg vs. 1 μg | refraction: statistically significant post hoc pairwise comparisons (Tukey test) [1, 6]: only the 50 μg dose differed significantly from the controls and 200 μg vs. 1 μg and 100 μg vs. 1 μg | Ultrasound measurements vitreous cavity depth: statistically significant post hoc pairwise comparisons (Tukey test) ([1]; goggled chicks, P<0.05, dose groups that differ, listed as Mecamylamine): the 1 μg dose as different from the 50 μg dose but not from the controls | overall effect on excessive ocular growth / experimental myopia of goggled eyes ([1]; intravitreal, one week): multiphasic response that differed between the low and high drug doses; also recorded: reduced the excessive ocular growth occurring beneath a goggle | growth and myopic refractive shift of goggled eyes at the lowest doses ([1]; lowest doses (1 and 10 μg) daily intravitreal): tended toward stimulating the growth and myopic refractive shift of goggled eyes | growth or refraction of non-goggled eyes (non-goggled eyes): no influence | retinas, gross and histological appearance [3]: indistinguishable grossly or histologically from vehicle treated control eyes | pupil diameter, change from baseline ([2]; 24 hours after single intravitreal injection of 50 μg): 0.4±0.1 mm | pupil diameter, change from baseline ([2]; two hours after single intravitreal injection of 1 μg): 0.8±0.2 mm | pupil diameter, change from baseline [2, 7]: 0.3±0.1 mm

CCN1C[C@]2(COC(=O)c3ccccc3N3C(=O)C[C@H](C)C3=O)CC[C@H](OC)[C@@]34[C@@H]5C[C@H]6[C@H](OC)[C@@H]5[C@](O)(C[C@@H]6OC)[C@](O)([C@@H](OC)[C@H]23)[C@@H]14 [methyllycaconitine, methyllcaconitine citrate]
anterior chamber depth of goggled eyes, drug effect ([1]; intravitreal, one week, ANOVA): no effect | pupil diameter, change from baseline ([2]; two hours after single intravitreal injection of 5 μg): 0.4±0.2 mm
